These molecules were tested on C666-1 cells (assay: C666-1 cell viability single concentration (50 μM) inhibition rate (Resazurin)). Details: Homo sapiens, C6661, 72 h, 50 μM compound, 72 hours, C666-1 cells; read-out: C666-1 cell viability single concentration (50 μM) inhibition rate, Ratio* (Inh %).
Format: cell-based
Method in brief: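 Resazurin fluorescence (560/590 nm, 3 h development) gave the proliferation inhibition rate, normalised to DMSO-treated and cell-free blank wells. Compound was tested at a single 50 μmol/L final concentration on C666-1 cells for 72 h at 37° C, with duplicate wells, after 24 h seeding.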
Molecule `COC(=O)c1cccc(C2CC2c2ccccc2)c1-n1cccc1` (stereo not drawn) [Example 272, Methyl 3-(2-phenylcyclopropyl)-2-(1H-pyrrol-1-yl)benzoate] has an inhibition at 50 µM of 10 to 30%. Molecule `COC(=O)c1cccc(N2CC(OCC(=O)Nc3ccccc3)C2)c1-n1cccc1` [Example 144, Methyl 3-(3-(2-oxo-2-(phenylamino)ethoxy)azetidin-1-yl)-2-(1H-pyrrol-1-yl)benzoate] has an inhibition at 50 µM of 10 to 30%. With `COC(=O)c1cccc(N2CC(OCc3ccc(OC)cc3)C2)c1-n1cccc1` [Example 139, Methyl 3-(3-((4-methoxybenzyl)oxy)azetidin-1-yl)-2-(1H-pyrrol-1-yl)benzoate] the inhibition at 50 µM was less than 10%. For `COc1cc(NC(=O)NC2CN(c3cccc(C(=O)O)c3-n3cccc3)C2)cc(OC)c1` [Example 171, 3-(3-(3-(3,5-dimethoxyphenyl)ureido)azetidin-1-yl)-2-(1H-pyrrol-1-yl)benzoic acid], the inhibition at 50 µM was less than 10%. `O=C(O)c1cccc(N2CC(Oc3ccc(CO)cc3)C2)c1-c1ccc2ccoc2c1` [Compound 52] was tested, and the inhibition at 50 µM was less than 10%. With `Nc1c(C(=O)O)cccc1N1CC(Oc2cccc(C(=O)O)c2)C1` [Compound 72, 3-(3-(3-carboxylphenoxy)azetidin-1-yl)-2-aminobenzoic acid] the inhibition at 50 µM was less than 10%. `COC(=O)c1cccc(N2CC(OC(=S)Nc3ccc(Cl)cc3Cl)C2)c1-n1cccc1` [Example 162, Methyl 3-(3-(((2,4-dichlorophenyl)thiocarbamoyl)oxy)azetidin-1-yl)-2-(1H-pyrrol-1-yl)benzoate] gave an inhibition at 50 µM of 10 to 30%. With `COC(=O)c1cccc(N2CC(Oc3ccc(CO)cc3)C2)c1-c1cccc(C(F)(F)F)c1` [Compound 59, Methyl 3′-(trifluoromethyl)-6-(3-(4-(hydroxymethyl)phenoxy)azetidin-1-yl)-[1,1′-biphenyl]-2-formate] the inhibition at 50 µM was 10 to 30%. Work on `O=C(O)c1cccc(N2CC(Oc3ccc(COc4ccccc4)cc3)C2)c1-n1cccc1` [Example 115, 3-(3-(4-(phenoxymethyl)phenoxy)azetidin-1-yl)-2-(1H-pyrrol-1-yl)benzoic acid] yielded an inhibition at 50 µM of less than 10%. `COC(=O)c1cccc(C#CN(Cc2ccc(F)cc2)S(=O)(=O)c2cccs2)c1-n1cccc1` [Example 326, Methyl 3-((N-(4-fluorobenzyl)thiophen-2-sulfonamido)ethynyl)-2-(1H-pyrrol-1-yl)benzoate] gave an inhibition at 50 µM of 30 to 50%. With `COC(=O)c1cccc(N2CC(NC(=O)c3ccccc3[N+](=O)[O-])C2)c1-n1cccc1` [Example 180, Methyl 3-(3-(2-nitrobenzamido)azetidin-1-yl)-2-(1H-pyrrol-1-yl)benzoate] the inhibition at 50 µM was 30 to 50%. In the case of `COC(=O)c1cccc(N2CC(Sc3ccccc3)C2)c1-n1cccc1` [Example 351, Methyl 3-(3-(phenylthio)azetidin-1-yl)-2-(1H-pyrrol-1-yl)benzoate], the inhibition at 50 µM is reported as less than 10%. For `O=C(O)c1cccc(N2CC(Oc3ccc(CO)cc3)C2)c1-c1ccc(-c2ccccc2)cc1` [Compound 64, 6-(3-(4-(hydroxymethyl)phenoxy)azetidin-1-yl)-[1,1′:4′,1″-terphenyl]-2-formic acid], the inhibition at 50 µM was greater than 50%. `COC(=O)c1cccc(N2CC(Oc3ccc(COc4cncc(F)c4)cc3)C2)c1-n1cccc1` [Example 358, Methyl 3-(3-(4-(((5-fluoropyridin-3-yl)oxy)methyl)phenoxy)azetidin-1-yl)-2-(1H-pyrrol-1-yl)benzoate] gave an inhibition at 50 µM of 10 to 30%. `COC(=O)c1cccc(N2CC3(CN(c4ccccc4N)C3)C2)c1-n1cccc1` [Compound 19, Methyl 3-(6-(2-aminophenyl)-2,6-diazaspiro[3.3]heptan-2-yl)-2-(1H-pyrrol-1-yl)benzoate] gave an inhibition at 50 µM greater than 50%. `O=C(O)c1cccc(N2CC(Oc3ccc(COc4cncnc4)cc3)C2)c1-n1cccc1` [Example 361, 3-(3-(4-((pyrimidin-5-yl-oxy)methyl)phenoxy)azetidin-1-yl)-2-(1H-pyrrol-1-yl)benzoic acid] gave an inhibition at 50 µM of less than 10%. Work on `COC(=O)c1cccc(N2CC(Oc3ccc(Oc4ccc(C#N)cc4)cc3)C2)c1-n1cccc1` [Example 210, Methyl 3-(3-(4-(4-cyanophenoxy)phenoxy)azetidin-1-yl)-2-(1H-pyrrol-1-yl)benzoate] yielded an inhibition at 50 µM of 10 to 30%. `O=C(Nc1ccc(Oc2ccccc2)cc1)NC1CN(c2cccc(C(=O)O)c2-n2cccc2)C1` [Example 167, 3-(3-(3-(4-phenoxyphenyl)ureido)azetidin-1-yl)-2-(1H-pyrrol-1-yl)benzoic acid] gave an inhibition at 50 µM of less than 10%. `COC(=O)c1cccc(C#CN(Cc2ccc3c(ccn3C)c2)S(=O)(=O)c2ccc(C)cc2)c1-n1cccc1` [Example 316, Methyl 3-(((4-methyl-N-((1-methyl-1H-indol-5-yl)methyl)phenyl)sulfonamido)ethynyl)-2-(1H-pyrrol-1-yl)benzoate] showed an inhibition at 50 µM of less than 10%. Work on `COC(=O)c1cccc(N2CC(Oc3ccc(NC(=O)Nc4ccccc4Cl)cc3)C2)c1-n1cccc1` [Example 135, Methyl 3-(3-(4-(3-(2-chlorophenyl)ureido)phenoxy)azetidin-1-yl)-2-(1H-pyrrol-1-yl)benzoate] yielded an inhibition at 50 µM of less than 10%. With `COC(=O)c1cccc(N2CC(Oc3ccc(CO)c(C)c3)C2)c1-n1cccc1` [Example 251, Methyl 3-(3-(4-(hydroxymethyl)-3-methylphenoxy)azetidin-1-yl)-2-(1H-pyrrol-1-yl)benzoate] the inhibition at 50 µM was greater than 50%. `COC(=O)c1cccc(C2CC2c2ccccc2)c1N` (stereo not drawn) [Example 391, Methyl 2-amino-3-(2-phenylcyclopropyl)benzoate] showed an inhibition at 50 µM of less than 10%. `COC(=O)c1cccc(C#CN2Cc3ccccc3S2(=O)=O)c1-n1cccc1` [Example 270] showed an inhibition at 50 µM of less than 10%. For `COCCOc1ccc(OC2CN(c3cccc(C(=O)OC)c3-n3cccc3)C2)cc1OC` [Example 218, Methyl 3-(3-(3-methoxy-4-(2-methoxyethoxy)phenoxy)azetidin-1-yl)-2-(1H-pyrrol-1-yl)benzoate], the inhibition at 50 µM was 10 to 30%. `COC(=O)c1cccc(N2CC3(CN(c4ccccc4)C3)C2)c1N` [Compound 9, Methyl 2-amino-3-(6-phenyl-2,6-diazaspiro[3.3]heptan-2-yl)benzoate] was tested, and the inhibition at 50 µM was 10 to 30%. Molecule `CC(=O)NCc1ccc(OC2CN(c3cccc(C(=O)O)c3-n3cccc3)C2)cc1` [Compound 77, 3-(3-(4-(acetylaminomethyl)phenoxy)azetidin-1-yl)-2-(1H-pyrrol-1-yl)benzoic acid] has an inhibition at 50 µM of less than 10%. With `COC(=O)c1cccc(N2CC(Oc3ccc(CO)cc3C)C2)c1-n1cccc1` [Example 299, Methyl 3-(3-(4-(hydroxymethyl)-2-methylphenoxy)azetidin-1-yl)-2-(1H-pyrrol-1-yl)benzoate] the inhibition at 50 µM was greater than 50%. `COC(=O)c1cccc(N2CC(Oc3ccc(-c4csc(NS(C)(=O)=O)n4)cc3)C2)c1-n1cccc1` [Example 261, Methyl 3-(3-(4-(2-(methylsulfonamido)thiazol-4-yl)phenoxy)azetidin-1-yl)-2-(1H-pyrrol-1-yl)benzoate] showed an inhibition at 50 µM of less than 10%. `COC(=O)c1cccc(N2CC(Oc3ccc(CO)cc3)C2)c1-c1ccc2nsnc2c1` [Compound 45, Methyl 2-(benzo[c][1,2,5]thiadiazol-5-yl)-3-(3-(4-(hydroxymethyl)phenoxy)azetidin-1-yl)benzoate] was tested, and the inhibition at 50 µM was 10 to 30%. Work on `O=C(Nc1ccc(OC(F)(F)F)cc1)NC1CN(c2cccc(C(=O)O)c2-n2cccc2)C1` [Example 168, 2-(1H-pyrrol-1-yl)-3-(3-(3-(4-(trifluoromethoxy)phenyl)ureido)azetidin-1-yl)benzoic acid] yielded an inhibition at 50 µM of less than 10%. For `COC(=O)c1cccc(N2CC([S+]([O-])c3ccc(C)cc3)C2)c1-n1cccc1` (stereo not drawn) [Example 191, Methyl 2-(1H-pyrrol-1-yl)-3-(3-(p-tolylsulfinyl)azetidin-1-yl)benzoate], the inhibition at 50 µM was 10 to 30%. With `O=C(O)c1cccc(N2CC(Oc3ccc(COc4cccc(C(F)(F)F)c4)cc3)C2)c1-n1cccc1` [Example 250, 3-(3-(4-((3-(trifluoromethyl)phenoxy)methyl)phenoxy)azetidin-1-yl)-2-(1H-pyrrol-1-yl)benzoic acid] the inhibition at 50 µM was 10 to 30%. In the case of `COC(=O)c1cccc(N2CC(Oc3ccc(CNS(=O)(=O)c4ccc(C)cc4)cc3)C2)c1-n1cccc1` [Example 283, Methyl 3-(3-(4-(((4-methylphenyl)sulfonamido)methyl)phenoxy)azetidin-1-yl)-2-(1H-pyrrol-1-yl)benzoate], the inhibition at 50 µM is reported as greater than 50%. In the case of `COC(=O)c1cccc(N2CC(Oc3ccc(CO)cc3)C2)c1-c1cccc(C#N)c1` [Compound 55], the inhibition at 50 µM is reported as 10 to 30%. `Nc1c(C(=O)O)cccc1N1CC2(CN(c3cccc(NS(=O)(=O)C4CC4)c3)C2)C1` [Compound 32, 2-amino-3-(6-(3-(cyclopropylsulfonamido)phenyl)-2,6-diazaspiro[3.3]heptan-2-yl)benzoic acid] showed an inhibition at 50 µM of less than 10%. For `COC(=O)c1cccc(N2CC3(C2)CN(c2cccc(C(=O)OC)c2-n2cccc2)C3)c1` [Compound 17, Methyl 3-(6-(3-(methoxycarbonyl)phenyl)-2,6-diazaspiro[3.3]heptan-2-yl)-2-(1H-pyrrol-1-yl)benzoate], the inhibition at 50 µM was 10 to 30%. `O=C(O)c1cccc(N2CC(Oc3ccc(CO)cc3)C2)c1-c1cccc(C(F)(F)F)c1` [Compound 60, 3′-(trifluoromethyl)-6-(3-(4-(hydroxymethyl)phenoxy)azetidin-1-yl)-[1,1′-biphenyl]-2-formic acid] showed an inhibition at 50 µM of less than 10%.

Same assay, conditions: Homo sapiens, C6661, 72 h, read-out: C666-1 cell viability single concentration (50 μM) inhibition rate, Ratio* (Inh %)
`O=C(O)c1cccc(C#CN(Cc2ccc(F)cc2)S(=O)(=O)c2cccs2)c1-n1cccc1` [Example 327, Lithium 3-((N-(4-fluorobenzyl)thiophen-2-sulfonamido)ethynyl)-2-(1H-pyrrol-1-yl)benzoate] gave an inhibition at 50 µM greater than 50%. `O=C(O)c1cccc(C#CN(Cc2ccccc2)S(=O)(=O)c2cccs2)c1-n1cccc1` [Example 323, Lithium 3-((N-benzylthiophen-2-sulfonamido)ethynyl)-2-(1H-pyrrol-1-yl)benzoate] was tested, and the inhibition at 50 µM was less than 10%.

Source: patent publication US20230157996A1, “SMALL-MOLECULE INHIBITOR TARGETING EB VIRUS NUCLEAR ANTIGEN PROTEIN, PREPARATION METHOD AND USE THEREOF” (priority 2020, published 2023)
